For 20 compounds, TGI and GI50 results are on record in PubChem BioAssay (NCI).

As usually defined, the TGI is the concentration at which net growth stops. For orientation: GI50 means the concentration giving 50% growth inhibition.

SMILES strings stand for the structures. Where “and” joins values, the source holds several entries; their conditions need not be identical. Equal entries are not always repeated.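 96-well plates; 48 h exposure; 5 concentrations. Endpoints by linear interpolation between flanking doses. Not reached: highest tested concentration assigned. Abbreviation: GI50, concentration required for 50% inhibition of growth. The concentration for full growth arrest is given as TGI.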 Where only a bound is given, the exact number is not on record here.

The first assay concerns RPMI-8226 leukemia. As to the kind of experiment: DTP human tumour cell line panel, 48 h.
In turn, `CCOC(=O)C1=C(C)Nc2ccccc2S1` yielded a TGI of more than 100000 nM.

With `Nc1n[nH]c2ccc([C@@H]3Nc4ccc5[nH]ncc5c4[C@H]4[C@H]5CCC(C5)[C@H]43)cc12`, the GI50 is 338 nM and the TGI turned out to be 2370 nM.

The next assay deals with OVCAR-8 ovarian. Nature of the assay: DTP human tumour cell line panel, 48 h.
As to `Cn1cc(NC(=O)c2cc(NC(=O)CCCCCCCCCCC(=O)Nc3cc(C(=O)Nc4cc(C(=O)NCCC(=N)N)n(C)c4)n(C)c3)cn2C)cc1C(=O)NCCC(=N)N`, the TGI was found to be 53.5 µM.

On to `C1COCCN1.C1COCCN1.N.N.[Cl-].[Pt+2]`, for which the GI50 is more than 100 µM and the TGI is more than 100 µM.

Compound `Cc1ccccc1C(C#N)C(=O)C(=O)Nc1nc([N+](=O)[O-])cs1` (stereo not drawn) returned a TGI of more than 100 µM.

The compound `COC(=O)C(c1[nH]nc2ccccc12)C(C(=O)OC)c1[nH]nc2ccccc12` (stereo not drawn) showed a TGI of 77.6 µM.

On to `COc1ccc2cc1Oc1ccc(cc1)C[C@H]1c3cc(c(OC)cc3CCN1C)Oc1c(OC)c(OC)cc3c1[C@H](C2)N(C)CC3`, for which the GI50 is 6.53 µM; the TGI was 16.3 µM and 19.2 µM and > 100 µM.

Turning to `O=c1[nH]c2ccccc2cc1C(Cl)=C(Cl)Cl`, the TGI is more than 100 µM.

In turn, `O=[N+]([O-])[C@@H]1C2C=CC(C2)[C@H]1Cl` (stereo partly drawn) returned a concentration for total growth inhibition (TGI) of more than 100 µM.

As for `N#CC1(c2nc3ccccc3o2)C(=O)C(=O)N(C2C3CC4CC(C3)CC2C4)C(=O)C1=O` (stereo not drawn), the TGI was more than 100 µM.

`CCOC(=O)C1(CC)CCCCC(=O)N1` (stereo not drawn) showed a TGI of more than 100 µM.

As to `C=CC1=CSNN1`, the TGI is more than 100 µM.

For the compound `O=C(C#Cc1c[nH]c(=O)[nH]c1=O)c1ccccc1Cl`, the TGI is 29.3 µM.

Consider `CCCCCCCCCCCCCCCC(=O)NCC(COP(=O)([O-])OCC[N+](C)(C)C)OCC` (stereo not drawn), for which the concentration for total growth inhibition (TGI) is 17.2 µM.

Turning to `O=c1cc(-c2cccc(F)c2)[nH]c2cc3c(cc12)OCO3`, the GI50 is 0.286 µM; the concentration for total growth inhibition (TGI) was 5.02 µM and 1.55 µM.

`O=C1NC2(CCCC2)C(=O)C12CCCC2` registered a TGI of more than 100 µM.

As for `O=C1CCCN(c2ccccc2)N1`, the TGI is more than 100 µM.

On to `CC(=O)Nc1cccc(-n2c(=O)n(C3CC3)c(=O)c3c(Nc4ccc(I)cc4F)n(C)c(=O)c(C)c32)c1`, for which the GI50 is 4.22 µM and > 6.71 µM; the TGI was more than 49.6 µM.

For `Fc1cccc(COc2ccc(Nc3ncncc3C#Cc3ccccc3)cc2Cl)c1`, the GI50 was more than 25 µM and the total growth inhibition concentration (TGI) is more than 25 µM.

Turning to `Nc1n[nH]c2ccc([C@@H]3Nc4ccc5[nH]ncc5c4[C@H]4[C@H]5CCC(C5)[C@H]43)cc12`, the GI50 was 0.479 µM and the TGI was more than 47.5 µM.

`CCOC(=O)CC1=Nc2ccccc2SC1` came in with a TGI of more than 100 µM.

A further assay relates to NCI-H226 lung. Nature of the assay: DTP human tumour cell line panel, 48 h.
The compound `Cn1cc(NC(=O)c2cc(NC(=O)CCCCCCCCCCC(=O)Nc3cc(C(=O)Nc4cc(C(=O)NCCC(=N)N)n(C)c4)n(C)c3)cn2C)cc1C(=O)NCCC(=N)N` yielded a TGI of more than 100 µM.

Take `C1COCCN1.C1COCCN1.N.N.[Cl-].[Pt+2]`: the GI50 was more than 100000 nM and the TGI was more than 100 µM.

In the case of `Cc1ccccc1C(C#N)C(=O)C(=O)Nc1nc([N+](=O)[O-])cs1` (stereo not drawn), the TGI is more than 100 µM.

`COC(=O)C(c1[nH]nc2ccccc12)C(C(=O)OC)c1[nH]nc2ccccc12` (stereo not drawn) came in with a TGI of more than 100 µM.

`O=c1[nH]c2ccccc2cc1C(Cl)=C(Cl)Cl` showed a TGI of more than 100 µM.

`N#CC1(c2nc3ccccc3o2)C(=O)C(=O)N(C2C3CC4CC(C3)CC2C4)C(=O)C1=O` (stereo not drawn) yielded a TGI of more than 100 µM.

On to `O=C(C#Cc1c[nH]c(=O)[nH]c1=O)c1ccccc1Cl`, for which the concentration for total growth inhibition (TGI) amounted to 75.7 µM. That is a double-digit micromolar value.

`CCCCCCCCCCCCCCCC(=O)NCC(COP(=O)([O-])OCC[N+](C)(C)C)OCC` (stereo not drawn) returned a TGI of 13.6 µM.

For `O=c1cc(-c2cccc(F)c2)[nH]c2cc3c(cc12)OCO3`, the GI50 was 951 nM and 96.3 nM; the TGI was 9.77 µM and 1.49 µM.

In turn, `O=C1CCCN(c2ccccc2)N1` gave a TGI of more than 100 µM.

As to `CC(=O)Nc1cccc(-n2c(=O)n(C3CC3)c(=O)c3c(Nc4ccc(I)cc4F)n(C)c(=O)c(C)c32)c1`, the GI50 is 4370 nM and > 4880 nM; the TGI is 47.8 µM and > 10 µM.

For `Fc1cccc(COc2ccc(Nc3ncncc3C#Cc3ccccc3)cc2Cl)c1`, the GI50 is more than 25000 nM and the TGI was more than 25 µM.

The compound `CCOC(=O)C1=C(C)Nc2ccccc2S1` gave a TGI of more than 100 µM.

For `Nc1n[nH]c2ccc([C@@H]3Nc4ccc5[nH]ncc5c4[C@H]4[C@H]5CCC(C5)[C@H]43)cc12`, the GI50 was 331 nM and the TGI turned out to be 2.88 µM.

As to `CCOC(=O)CC1=Nc2ccccc2SC1`, the TGI is more than 100 µM.

A further assay relates to HL-60(TB) leukemia. Nature of the assay: DTP human tumour cell line panel, 48 h.
As to `Cc1ccccc1C(C#N)C(=O)C(=O)Nc1nc([N+](=O)[O-])cs1` (stereo not drawn), the TGI was more than 100 µM.

`COC(=O)C(c1[nH]nc2ccccc12)C(C(=O)OC)c1[nH]nc2ccccc12` (stereo not drawn) registered a TGI of 50.5 µM. This lies in the double-digit micromolar range.

Regarding `COc1ccc2cc1Oc1ccc(cc1)C[C@H]1c3cc(c(OC)cc3CCN1C)Oc1c(OC)c(OC)cc3c1[C@H](C2)N(C)CC3`, the TGI is 16.1 µM and 23.8 µM and > 100 µM.

`O=c1[nH]c2ccccc2cc1C(Cl)=C(Cl)Cl` gave a TGI of more than 100 µM.

As for `O=[N+]([O-])[C@@H]1C2C=CC(C2)[C@H]1Cl` (stereo partly drawn), the TGI is more than 100 µM.

Compound `N#CC1(c2nc3ccccc3o2)C(=O)C(=O)N(C2C3CC4CC(C3)CC2C4)C(=O)C1=O` (stereo not drawn) gave a TGI of more than 100 µM.

Compound `CCOC(=O)C1(CC)CCCCC(=O)N1` (stereo not drawn) displayed a TGI of more than 100 µM.

Consider `C=CC1=CSNN1`, for which the TGI is more than 100 µM.

As to `O=C(C#Cc1c[nH]c(=O)[nH]c1=O)c1ccccc1Cl`, the TGI amounted to 48.1 µM. This counts as double-digit micromolar.

As for `O=c1cc(-c2cccc(F)c2)[nH]c2cc3c(cc12)OCO3`, the 50% growth inhibitory concentration (GI50) was 201 nM.

In turn, `O=C1NC2(CCCC2)C(=O)C12CCCC2` displayed a TGI of more than 100 µM.

As to `O=C1CCCN(c2ccccc2)N1`, the total growth inhibition concentration (TGI) was more than 100 µM.

Take `CC(=O)Nc1cccc(-n2c(=O)n(C3CC3)c(=O)c3c(Nc4ccc(I)cc4F)n(C)c(=O)c(C)c32)c1`: the GI50 was < 10 nM and 1.41 nM; the total growth inhibition concentration (TGI) is more than 41.7 µM.

Consider `Fc1cccc(COc2ccc(Nc3ncncc3C#Cc3ccccc3)cc2Cl)c1`, for which the GI50 was more than 25000 nM and the TGI was more than 25 µM.

Regarding `Nc1n[nH]c2ccc([C@@H]3Nc4ccc5[nH]ncc5c4[C@H]4[C@H]5CCC(C5)[C@H]43)cc12`, the GI50 was 247 nM and the concentration for total growth inhibition (TGI) was 0.654 µM.

A further assay has as its system SK-MEL-5 melanoma. As to the kind of experiment: DTP human tumour cell line panel, 48 h.
In the case of `Cn1cc(NC(=O)c2cc(NC(=O)CCCCCCCCCCC(=O)Nc3cc(C(=O)Nc4cc(C(=O)NCCC(=N)N)n(C)c4)n(C)c3)cn2C)cc1C(=O)NCCC(=N)N`, the TGI came out at 87.8 µM.

Consider `C1COCCN1.C1COCCN1.N.N.[Cl-].[Pt+2]`, for which the GI50 was more than 100000 nM and the TGI was more than 100 µM.

For `Cc1ccccc1C(C#N)C(=O)C(=O)Nc1nc([N+](=O)[O-])cs1` (stereo not drawn), the TGI is more than 100 µM.

For the compound `COc1ccc2cc1Oc1ccc(cc1)C[C@H]1c3cc(c(OC)cc3CCN1C)Oc1c(OC)c(OC)cc3c1[C@H](C2)N(C)CC3`, the GI50 is 3940 nM; the TGI is 11.8 µM and 13.8 µM and > 100 µM.

Compound `O=[N+]([O-])[C@@H]1C2C=CC(C2)[C@H]1Cl` (stereo partly drawn) showed a TGI of more than 100 µM.

On to `N#CC1(c2nc3ccccc3o2)C(=O)C(=O)N(C2C3CC4CC(C3)CC2C4)C(=O)C1=O` (stereo not drawn), for which the TGI was more than 100 µM.

`C=CC1=CSNN1` displayed a TGI of more than 100 µM.

Compound `O=C(C#Cc1c[nH]c(=O)[nH]c1=O)c1ccccc1Cl` yielded a TGI of 28.8 µM.

`CCCCCCCCCCCCCCCC(=O)NCC(COP(=O)([O-])OCC[N+](C)(C)C)OCC` (stereo not drawn): the TGI was determined as 33.9 µM.

Regarding `O=c1cc(-c2cccc(F)c2)[nH]c2cc3c(cc12)OCO3`, the GI50 is 63.9 nM.

Compound `O=C1NC2(CCCC2)C(=O)C12CCCC2` registered a TGI of more than 100 µM.

`O=C1CCCN(c2ccccc2)N1` returned a concentration for total growth inhibition (TGI) of more than 100 µM.

Regarding `CC(=O)Nc1cccc(-n2c(=O)n(C3CC3)c(=O)c3c(Nc4ccc(I)cc4F)n(C)c(=O)c(C)c32)c1`, the TGI was 15.9 µM and > 10 µM.

Consider `Fc1cccc(COc2ccc(Nc3ncncc3C#Cc3ccccc3)cc2Cl)c1`, for which the GI50 was more than 25000 nM and the TGI is more than 25 µM.

For `CCOC(=O)C1=C(C)Nc2ccccc2S1`, the TGI is more than 100 µM.

On to `Nc1n[nH]c2ccc([C@@H]3Nc4ccc5[nH]ncc5c4[C@H]4[C@H]5CCC(C5)[C@H]43)cc12`, for which the GI50 is 403 nM and the TGI worked out at 2.6 µM.

On to `CCOC(=O)CC1=Nc2ccccc2SC1`, for which the TGI was more than 100 µM.

For a further assay, the system named is DLD-1 colon. As to the kind of experiment: DTP human tumour cell line panel, 48 h.
On to `Cn1cc(NC(=O)c2cc(NC(=O)CCCCCCCCCCC(=O)Nc3cc(C(=O)Nc4cc(C(=O)NCCC(=N)N)n(C)c4)n(C)c3)cn2C)cc1C(=O)NCCC(=N)N`, for which the total growth inhibition concentration (TGI) is more than 100 µM.

In the case of `C1COCCN1.C1COCCN1.N.N.[Cl-].[Pt+2]`, the GI50 is more than 100 µM and the TGI is more than 100 µM.

As to `Cc1ccccc1C(C#N)C(=O)C(=O)Nc1nc([N+](=O)[O-])cs1` (stereo not drawn), the concentration for total growth inhibition (TGI) is more than 100 µM.

Turning to `COC(=O)C(c1[nH]nc2ccccc12)C(C(=O)OC)c1[nH]nc2ccccc12` (stereo not drawn), the TGI is more than 100 µM.

With `COc1ccc2cc1Oc1ccc(cc1)C[C@H]1c3cc(c(OC)cc3CCN1C)Oc1c(OC)c(OC)cc3c1[C@H](C2)N(C)CC3`, the total growth inhibition concentration (TGI) was found to be 20.5 µM.

For `O=c1[nH]c2ccccc2cc1C(Cl)=C(Cl)Cl`, the total growth inhibition concentration (TGI) is more than 100 µM.

Regarding `O=[N+]([O-])[C@@H]1C2C=CC(C2)[C@H]1Cl` (stereo partly drawn), the TGI was more than 100 µM.

`CCOC(=O)C1(CC)CCCCC(=O)N1` (stereo not drawn) registered a TGI of more than 100 µM.

Compound `C=CC1=CSNN1` showed a TGI of more than 100 µM.

Compound `O=C(C#Cc1c[nH]c(=O)[nH]c1=O)c1ccccc1Cl` had a TGI of 29.3 µM.

With `CCCCCCCCCCCCCCCC(=O)NCC(COP(=O)([O-])OCC[N+](C)(C)C)OCC` (stereo not drawn), the TGI stood at 16.9 µM.

The compound `O=c1cc(-c2cccc(F)c2)[nH]c2cc3c(cc12)OCO3` registered a TGI of 8.93 µM.

For `O=C1NC2(CCCC2)C(=O)C12CCCC2`, the TGI is more than 100 µM.

`CCOC(=O)C1=C(C)Nc2ccccc2S1` returned a TGI of more than 100 µM.

`CCOC(=O)CC1=Nc2ccccc2SC1` showed a TGI of more than 100 µM.
